Measured values from US20210163489A1, “PYRAZOLOPYRIMIDINE DERIVATIVES AND THE COMPOSITIONS AND METHODS OF TREATMENT REGARDING THE SAME” (NysnoBio Ireland DAC, priority 2016, published 2021).

Key:
[1] = Metabolic stability in rat liver microsomes (RLM); assay type: in vitro ADME; settings: 1 μM compound, 1.0 mg/mL microsome, NADPH
Experimental: Compounds were also tested for metabolic stability in both rat liver microsomes (RLM) and human liver microsomes (HLM) and their half-life calculated (See Table 6). The assay was performed as follows. The total volume for each incubation was 250 μL. A 100 μM DMSO solution of compound (diluted from 10 mM stock solution) was spiked into 50 mM KH2PO4 (pH 7.4) buffer containing liver microsome at a concentration of 1.0 mg/mL. The reaction was initiated by the addition of 50 μL of 1 mM NADPH. The final concentration of each compound was 1 μM (1% DMSO). The positive controls, phenacetin for CYP1A2, diclofenac for CYP2C9, omeprazole for CYP2C19, dextromethorphan for CYP2D6 and midazolam for CYP3A4 were added to a separate tube with the final substrate concentrations of 1 μM (1% DMSO) for evaluating the enzyme activities in the liver microsomes. At 0, 15, 30 and 60 min, an aliquot of 15 μL reaction mixtures were removed and 200 μL of methanol (with internal standard of 25 ng/mL propranolol) was added to quench the reaction. The resulting mixture was centrifuged and supernatant was used for LC-MS/MS analysis.
The signals for each compound, or the metabolites for the probe substrates and the internal standard were integrated and the peak area ratios to internal standard were generated. Percent parent remaining at a specified timepoint was calculated based on the peak area ratios at time 0 (as 100%) for in vitro metabolic stability studies in liver microsome and hepatocyte. The observed rate constant (kobs) for the metabolism of substrates was calculated by plotting the natural log of percentage substrate remaining versus time of incubation with the slope being kobs. The half-life (T1/2) was calculated according to the following equation: […]

Parkin = target: T1, Parkin (Homo sapiens, UniProt O60260); experiment: Parkin pUB auto-ubiquitinylation assay (TR-FRET); assay type: biochemical; settings: activation of pUb activated Parkin; read-out: Auto-ubiq EC50 (μM) [Example 3]
T1 construct: Enzyme 3: Parkin-His tagged 203 μM (10.5 mg/ml)
Source text: A Parkin pUB Auto-ubiquitinylation Assay is used to evaluate a compound's potency to activate Parkin's ability to Auto-ubiquitinylate itself.
The principle of this assay is that the E3 Ligase Parkin catalyzes the transfer of Ubiquitin to target proteins, but also has the ability to auto-ubiquitinylate itself. The phospho-Ubiquition (pUb) added to the assay alters the Parkin to a state where small molecule activators can enable the Parkin to auto-ubiquitinylate though the E1-E2 cascade reaction. The use of a Eu cryptate Ubiquition and anti 6His-d2 that binds to the His tagged Parkin will give a signal when the Eu cryptate Ubiquition is auto-ubiquitinylate onto the Parkin which can be monitored by TR-FRET.
Similar to the Activity-based probe assay in Example 2, screening for activating compounds can be distinguished from the controls as follows:
100% activation signal=pUb activated Parkin+40 nM control activator in DMSO. 0% activation signal=pUb activated Parkin+DMSO only. Parkin activators can be identified by an increase of the 0% activation signal TR-FRET signal.
• Assay Plate: White 384 well plate (Corning 3572) • Enzyme 1: E1 (Ubiquitin-activating enzyme/UBE1 Boston Biochem E-305) • Enzyme 2: E2 (UBcH7/Ube2L3 Boston Biochem E2-640) • Enzyme 3: Parkin-His tagged 203 μM (10.5 mg/ml) • pUb: Phospho-Ubiquitin (S65) (Boston Biochem U-102) • Eu Cryptate Reagent: Ubiquitin Eu (CisBio 61UBIKLA) • DMSO: DMSO (Sigma-34869-2.5L) • Reaction Buffer: 50 mM HEPES, 50 mM NaCl, 1 mM MgCl2, 0.005% Tween 20, 0.1% • PF-127 (Fisher Scientific 50-310-494), pH 8.5 • Detection Buffer: 50 mM HEPES, 50 mM NaCl, 800 mM KF, 5 mM EDTA, 0.005% • Tween 20, 0.1% PF-127, pH 8.5 • Detection Reagent Z: 13.4 nM Anti-6His-d2 in detection buffer • d2 Reagent: Anti-6His-d2 (CisBio 61HISDLA)
Enzyme Reaction (15 min Pre-Incubation with Parkin, pUb and Activator Only) • Parkin: 196 nM • pUb: 196 nM • DMSO: 1% DMSO • E1: 5 nM • E2: 50 nM • Ubiquitin Eu: 8.8 nM • Reaction time: 120 minutes • Temperature: 22° C. • Total volume: 10 μl reaction
Take 10 μl of Enzyme Reaction above and add 10 μl detection Reagent Z under the following conditions:
Reaction time: 60 minutes
1) Load assay plate wells with 4.9 μl 400.0 nM Parkin, 400 nM pUb in reaction buffer by use of Eppendorf 12-channel pipette. 2) Deliver 0.1 μl 100× activator candidates in DMSO by use of Echo 555 compound dispenser. Highest 100× concentration=100 μm and then twofold dilutions. Add each compound and control in duplicate wells. 3) Spin 1000 rpm, 2 minutes, at room temp. 4) Incubate plate for 15 minutes at room temp. 5) Add 5 μl 10 nM E1, 100 nM E2, 17.6 nM Ubiquitin Eu and 2 mM ATP in Reaction Buffer by use of Eppendorf 12-channel pipette. 6) Spin 1000 rpm, 2 minutes, at room temp. 7) Incubate plate for 120 minutes at room temp. 8) Add 10 μl 13.4 nM anti his d2 in detection buffer by use of Eppendorf 12-channel pipette. 9) Spin 1000 rpm, 2 minutes, at room temp. 10) Incubate plate for 120 minutes at room temp. 11) Read plates on Perkin Elmer Envision instrument with the following parameters:
(§1) LANCE dual laser protocol loaded into the Envision® software
(§2) Top Mirror: LANCE/DELFIA Duel/Bias (Bar code 446) Emission Filter: APC 665 EM (Bar code 205) 2nd Emission Filter: Europium 615 EM (Bar code 203) Read […] (channel 1) and 615 nm (channel 2) wavelengths on Envision®
(§3) Data Analysis: The Data can be read in CSV files. There are two tables in those CSV files, which are the values of 655 nm (channel 1) and 615 nm (channel 2) wavelengths respectively. The data is converted to an HTRF Ratio=(Channel 1/Channel 2)*10,000
(§4) The average of all the 0 uM controls (DMSO only)=BKGD (Background—0% activation). Subtract BKGD from each HTRF Ratio value=HTRF-BKGD. The average of all the 100 uM control activator in DMSO controls=Max (100% activation). The following equation is then used to calculate % Activation for each well/candidate as follows: % Activation=(HTRF−BKGD/Max)*100.
XLFIT5 model 205 was applied for the data analysis. […]

Parkin ligase = target: T2, Parkin ligase (Homo sapiens, UniProt O60260); experiment: Activity-based probe assay using an ubiquitin vinyl sulfone probe (TR-FRET); assay type: biochemical; settings: activation of heat activated Parkin, HA-Ub-VS probe; read-out: Probe Assay EC50 (μM) [Example 2]
T2 construct: Enzyme: Parkin-His tagged 203 μM (10.5 mg/ml)
T2 sequence (O60260 1-465): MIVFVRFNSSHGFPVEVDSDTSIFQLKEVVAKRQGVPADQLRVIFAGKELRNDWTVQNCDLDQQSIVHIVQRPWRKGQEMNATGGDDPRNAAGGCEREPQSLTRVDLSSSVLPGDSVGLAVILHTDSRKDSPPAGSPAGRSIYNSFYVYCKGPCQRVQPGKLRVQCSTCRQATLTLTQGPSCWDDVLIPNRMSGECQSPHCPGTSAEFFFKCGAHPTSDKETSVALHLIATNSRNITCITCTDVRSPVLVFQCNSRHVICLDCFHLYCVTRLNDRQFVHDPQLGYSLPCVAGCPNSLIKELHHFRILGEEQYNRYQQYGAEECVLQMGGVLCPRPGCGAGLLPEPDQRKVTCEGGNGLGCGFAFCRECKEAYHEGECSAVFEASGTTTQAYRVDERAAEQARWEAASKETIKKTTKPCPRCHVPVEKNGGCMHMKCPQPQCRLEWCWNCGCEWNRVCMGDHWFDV
Experimental: An Ubiquitin vinyl sulfone probe can be used that irreversibly binds to the active site cysteine of Parkin ligase. Covalent attachment of the probe to the Parkin can be monitored by TR-FRET. Candidate activator compounds can be identified by increasing the activity of Parkin ligase due to an increase in TR-FRET signal. Screening for activating compounds can be distinguished from the controls as follows:
100% activation signal=Heat activated Parkin+100 nM control activator in DMSO. 0% activation signal=Heat activated Parkin+DMSO only. Parkin activators can be identified by an increase of the 0% activation signal TR-FRET signal.
• Assay Plate: White 384 well plate (Corning 3572) • Enzyme: Parkin-His tagged 203 μM (10.5 mg/ml) • Probe: Ubiquitin vinyl-sulfone (HA-Ub-VS Boston Biochem U-212) • DMSO: DMSO (Sigma cat # D4540-100ML) • Reaction Buffer: 50 mM HEPES (pH 8.5), 150 mM NaCl, 0.01% Tween 20, 0.1% BSA • Detection Buffer: 50 mM HEPES (pH 8.5), 150 mM NaCl, 0.01% Tween 20, 0.1% BSA, 800 mM KF • Detection Reagent A: 2.6 nM Anti-6HIS-Eu cryptate and 40 nM Anti-HA-XL665 in detection buffer • Eu cryptate: Anti-6HIS-Eu cryptate (CisBio 61HISKLA) • XL665: Anti-HA-XL665 (CisBio 610HAXLA) Enzyme Reaction (15 min Pre Incubation Parkin with Activator Only) • Parkin: 40 nM • HA-Ub-VS Probe: 70 nM • Activator/DMSO: 2× Activator/2% DMSO • Reaction time: 60 minutes • Temperature: 22° C. • Total volume: 10 μl reaction
• Take 10 μl of Enzyme Reaction above and add 10 μl detection Reagent A under the following conditions: • Reaction time: 60 minutes • Temperature: 22° C. • Total volume: 20 μl
Assay procedure (Using HP D-300 compound dispenser and Bravo for the operation):
1) Heat activate Parkin in reaction buffer (500 μl/1.5 ml tube: Eppendorf Thermomixer 5 minutes, 400 rpm at 58° C. and put on ice until needed). 2) Load assay plate wells with 4.8 μl 84.5 nM Parkin in reaction buffer by use of Bravo. 3) Deliver 0.2 μl 200× activator candidates in DMSO by use of HP D-300 compound dispenser. Highest 200× concentration=20 μm and then twofold dilutions. 4) Spin 1000 rpm, 2 minutes, at room temp. 5) Incubate plate for 15 minutes at room temp. 6) Add 5 μl 140 nM HA-Ub-VS Probe in reaction buffer by use of Bravo. 7) Spin 1000 rpm, 2 minutes, at room temp. 8) Incubate plate for 60 minutes at room temp. 9) Add 10 μl 2.6 nM Anti-6HIS-Eu cryptate and 40 nM Anti-HA-XL665 in detection buffer. 10) Spin 1000 rpm, 2 minutes, at room temp. 11) Incubate plate for 60 minutes at room temp. 12) Read plates on Perkin Elmer Envision instrument with the following parameters:
as §1, §2, §3
as §4, with “[…] 100 nM control activator” for “100 uM control activator”
Graphpad Prisim was used with Transform X values: X=Log(X) and nonlinear regression (dose-response-stimulation): Log(agonist) vs Response—variable slope (four parameters) with constrains set to Bottom=0 and Top=100.

For `COc1ccc(-c2cnc3c(S)cc(C)nn23)cc1` [Compound Q3], the “RLM t1/2” value [1] was 6.0 min and the EC50 (Parkin) was over 40 µM.
With `COc1ccc(-c2cnn3c(O)c4c(nc23)CN(C)CC4)cc1` [Compound R3] the EC50 (Parkin ligase) was over 100 µM.
In the case of `COc1ccc(-c2cnc3c(S)cc(C)nn23)cc1` [Compound T3], the “RLM t1/2” value [1] is reported as 96.0 min.
With `Cc1ccc(-c2cnc3c(O)cc(C)nn23)cc1` [Compound U3] the EC50 (Parkin ligase) was over 100 µM.
`COc1ccc(-c2cnc3c(O)cc(C)nn23)cc1` [Compound V3] gave an EC50 (Parkin ligase) of over 100 µM.
